Measurements as given in patent US20250248398A1, “TICK REPELLENT” (priority 2024, published 2025).

Columns and labels:
I. scapularis tick = test: two-choice still-air Pyrex glass olfactometer, 20 hours, natural and synthetic ant metabolites; design: species or system Ixodes scapularis; conditions: in vivo
Procedure: Treatment and control stimuli were assigned to the two lateral chambers, alternating the position of stimuli between replicates to account for potential side bias. Both lateral chambers were also fitted with a wet cotton ball (Thermo Fisher Scientific, MA, U.S.A.) to ensure sufficiently high humidity.
To initiate an experimental replicate, a single I. scapularis tick was introduced into the central chamber, briefly exposed to human exhale to stimulate movement, and then allowed 20 hours to respond. A tick was considered a responder if it was found in a lateral chamber or in a connecting glass tube closer to a lateral chamber than the central chamber, as shown in FIG. 2. To prevent tick escape, all three chambers of the olfactometer were sealed with Parafilm (Bemis, WI, U.S.A.) for the duration (i.e., 20 hours) of the experiment.
To minimize the potential for tick escape, and to prevent ticks from sensing cues (e.g., convective heat, infrared radiation, CO2) originating from experimentalists that initiated or scored experiments, olfactometers (n=10-15) were housed in a plexiglass box (112 cm×24 cm×14 cm). Experiments were run under a 14:10 light/dark cycle, thus enabling ticks to respond to test stimuli while maintaining a circadian rhythm. […]

Ixodes scapularis = test: two-choice still-air olfactometer (3D-printed), 30 minutes, synthetic fungal metabolites; format: in vivo; conditions: female I. scapularis
Procedure: All behavioral responses of ticks to experimental substrates were tested in two-choice still-air olfactometers (150 mm×50 mm×17 mm; FIGS. 1a, 1b, 1c). […] Each olfactometer had three inset circular chambers (with an inner diameter of 28 mm) interconnected with inset linear paths (24 mm×10 mm×7 mm).
Treatment and control test stimuli were assigned to lateral chambers, alternating the position of stimuli between replicates to account for potential side bias. To initiate an experimental replicate, a single tick was introduced into the central chamber, briefly exposed to human exhale to stimulate movement, and then allowed 30 minutes to respond. […] Olfactometers were sealed with parafilm and a rectangular lid (150 mm×50 mm×3 mm).
A tick was considered a responder if it was found in a lateral chamber after 30 minutes. After each experiment, olfactometers were cleaned with 70% ethanol and hexane. At the end of each experimental day, olfactometers were washed with Sparkleen (Thermo Fisher Scientific, MA, U.S.A), rinsed with distilled water, and air-dried.
Similarly, geosmin dissolved in 25 μL of methanol was applied at doses of 1.0 ng (Exp. 4), 0.1 ng (Exp. 5), and 0.01 ng (Exp. 6), using 25 μL of methanol as the control stimulus. In each experimental replicate, methanol was allowed 5 minutes to evaporate before a tick was introduced into the central olfactometer chamber.
In each experiment, a watch glass (28 mm diameter) fitted with a congruent piece of filter paper was placed in lateral olfactometer chambers, as shown in FIG. 1. In experiment 7, 1 ng of 2-MIB was dissolved in 25 μL of methanol and applied to the treatment filter paper, and 25 μL of methanol was applied to the corresponding control filter paper. In experiment 8, 1 ng of L-borneol and 1 ng of D-borneol were each dissolved in 25 μL of methanol and applied to the treatment filter paper, and 50 μL of methanol was applied to the control filter paper. In each experimental replicate, methanol was allowed 5 minutes to evaporate before a tick was introduced into the central olfactometer chamber.
In each experimental replicate, methanol was allowed 5 minutes to evaporate before a tick was introduced into the central olfactometer chamber.

[1] = system: American dog ticks, Dermacentor variabilis; test: two-choice still-air olfactometer (3D-printed), 30 minutes; format: in vivo; conditions: female D. variabilis, 1 ng in 25 μL methanol
Procedure: (§1) All behavioral responses of ticks to experimental substrates were tested in two-choice still-air olfactometers (150 mm×50 mm×17 mm; FIGS. 1a, 1b, 1c). Still-air, instead of moving-air, olfactometers were used because off-host ticks encounter fungi in soil microhabitats such as leaf litter where there is typically little, if any, air movement. Each olfactometer had three inset circular chambers (with an inner diameter of 28 mm) interconnected with inset linear paths (24 mm×10 mm×7 mm).
(§2) Olfactometers were modeled and 3D-printed using Autodesk Fusion 360 (Version 13.2.0.9150), Creality Slicer (Version 4.8.2), and an Ender-3 Pro 3D printer (Creality, Shengzhen, China). Olfactometers were printed using translucent 1.75 mm (±0.03 mm dimensional accuracy) polylactic acid (PLA) filament ([…], OH, U.S.A.). To reduce the porosity of 3D-printed olfactometers, XTC-3D brush-on epoxy coating was applied (Smooth-On Inc., PA, U.S.A.).
(§3) Treatment and control test stimuli were assigned to lateral chambers, alternating the position of stimuli between replicates to account for potential side bias. To initiate an experimental replicate, a single tick was introduced into the central chamber, briefly exposed to human exhale to stimulate movement, and then allowed 30 minutes to respond. […]

[2] = system: lone star ticks, Amblyomma americanum; test: as above; format: in vivo; conditions: female A. americanum, 1 ng in 25 μL methanol
Procedure: as §1, §2, §3

[3] = dose 1 ng in 25 μL methanol on filter paper

| Structure (SMILES) | deterrence of ticks (treatment vs DCM control) (I. scapularis tick) | deterrence of ticks (treatment vs methanol control) (Ixodes scapularis; dose 0.01 ng in 25 μL methanol) | deterrence of ticks (treatment vs methanol control) (Ixodes scapularis; dose 0.1 ng in 25 μL methanol) | deterrence of ticks (treatment vs methanol control) (Ixodes scapularis; [3]) | deterrence of ticks (treatment vs methanol control) [1] | deterrence of ticks (treatment vs methanol control) [2] |
| --- | --- | --- | --- | --- | --- | --- |
| O=CO [formic acid] | deterred neither |  |  |  |  |  |
| CC1(C)[C@@H]2CC[C@@]1(C)[C@](C)(O)C2 [2-MIB, 2-methylisoborneol] |  | not deterred | moderately deterred | strongly deterred | deterred | deterred |
| CC1CCCC2(C)CCCCC12O (stereo not drawn) [geosmin, reference compound] |  | not deterred | not deterred | not deterred |  |  |
